# Measured values reported in publication PMC3767324, “Synthesis, Characterization, and BSA Binding Studies of Some New Benzamides Related to Schiff Base” (ISRN Organic Chemistry, 2013).
# Where two headings read alike, the source gives them in different places.
# Key:
# [1] = tested on: Bacillus subtilis (NCIM 2999); assay: minimum inhibitory concentration by dilution method; type: cell-based; conditions: B. subtilis, dilution method, average of three replicates
# Procedure: (§1) The in vitro antimicrobial screening effects of the compounds (3 and 5a–j) were individually tested against a panel of bacteria and fungi including Staphylococcus aureus (NCIM 5021), Bacillus subtilis (NCIM 2999), Pseudomonas aeruginosa (NCIM 5029), Escherichia coli (NCIM 2574), Candida. albicans (NCIM 3471), and Aspergillus flavus (NCIM 524). Microbial strains were cultured overnight at 37°C in nutrient and potato dextrose agar medium. All the pure microbial strains were obtained from National Chemical Laboratory (NCL), Pune, India.
# (§2) The minimum inhibitory concentration of the synthesized compounds was determined by dilution method. The compounds were dissolved and then diluted using DMSO; two-fold serial concentrations of the compounds were employed to determine the MIC. In this method, the test concentrations of chemically synthesized compounds were made from 5 to 125 μg/mL.
# [2] = tested on: Escherichia coli (NCIM 2574); assay: as above; type: cell-based; conditions: E. coli, dilution method, average of three replicates
# Procedure: as §1, §2
# [3] = tested on: Pseudomonas aeruginosa (NCIM 5029); assay: as above; type: cell-based; conditions: P. aeruginosa, dilution method, average of three replicates
# Procedure: as §1, §2
# [4] = tested on: Staphylococcus aureus (NCIM 5021); assay: as above; type: cell-based; conditions: S. aureus, dilution method, average of three replicates
# Procedure: as §1, §2
# [5] = tested on: Bacillus subtilis (NCIM 2999); assay: agar disc diffusion, zone of inhibition; type: cell-based; conditions: B. subtilis, discs 6 mm, test compounds 100 µg/mL in DMSO, standards 10 µg/disc, 37°C 24 h, average of three replicates
# Procedure: as §1
# (§3) The antibacterial activity of compounds was determined by agar disc diffusion method. Briefly, a suspension of tested bacterial strains was spread on the nutrient agar medium and potato dextrose agar for fungi. The discs (6 mm in diameter) impregnated with test chemicals each dissolved in concentration (100 μg/mL in DMSO) were placed on the inoculated agar and these plates were kept at 4°C for 2 h. The plate was incubated at 37°C for 24 h in case of bacteria and 48 h at 28°C in case of fungi. streptomycin (10 μg/disc) and fluconazole (10 μg/disc) were used as the standards for antibacterial and antifungal activity, respectively. All the samples were performed in triplicate and the zone of inhibition was measured in millimeters.
# [6] = tested on: Escherichia coli (NCIM 2574); assay: agar disc diffusion, zone of inhibition; type: cell-based; conditions: E. coli, discs 6 mm, test compounds 100 µg/mL in DMSO, standards 10 µg/disc, 37°C 24 h, average of three replicates
# Procedure: as §1, §3
# [7] = tested on: Pseudomonas aeruginosa (NCIM 5029); assay: agar disc diffusion, zone of inhibition; type: cell-based; conditions: P. aeruginosa, discs 6 mm, test compounds 100 µg/mL in DMSO, standards 10 µg/disc, 37°C 24 h, average of three replicates
# Procedure: as §1, §3
# [8] = tested on: Staphylococcus aureus (NCIM 5021); assay: agar disc diffusion, zone of inhibition; type: cell-based; conditions: S. aureus, discs 6 mm, test compounds 100 µg/mL in DMSO, standards 10 µg/disc, 37°C 24 h, average of three replicates
# Procedure: as §1, §3
# A. niger [9] = assay: minimum inhibitory concentration by dilution method; type: cell-based; conditions: A. niger; dilution method; average of three replicates
# Procedure: [The procedure below names another organism; the source lists this organism under the same test.] as §1, §2
# [10] = tested on: Aspergillus flavus (NCIM 524); assay: as above; type: cell-based; conditions: A. flavus; dilution method; average of three replicates
# Procedure: as §1, §2
# [11] = superoxide radical scavenging assay (NBT, xanthine-xanthine oxidase system); type: biochemical; conditions: NBT reduction, pH 7.8, 560 nm, three replicates
# Procedure: Superoxide radical scavenging activity was measured as described by Kovala-Demertzi et al., (2004). The assay is based on the reduction of nitroblue tetrazolium (NBT) by superoxide ions generated by the xanthine-xanthine oxidase system (X–XO). The reaction system contained 0.2 mM xanthine and 0.6 mM NBT in 0.1 M phosphate buffer, pH 7.8. The tested compounds were dissolved in methanol. The reaction was started by addition of XO (0.07 U mL^−1), an activity which allowed to yield the absorbance change between 0.03 and 0.04 per minute, at 560 nm. The extent of NBT reduction was followed spectrophotometrically, by measuring the increase of the absorbance at 560 nm. All the experiments were replicated three times. The IC50 of each compound was defined as the concentration which inhibited 50% of the NBT reduction by O2 ^•− produced in the X–XO system.
# Superoxide anion radical is normally initially formed, and its effects can be magnified because it produces other kinds of free radicals and oxidizing agents. The enzymatic superoxide anion radical was generated by the xanthine/xanthine oxidase reaction system. The production of superoxide was estimated by the nitroblue tetrazolium method. […] Differently, in the m-position, methoxy and hydroxyl groups act as an electron-withdrawing properties, ([…]), which are possible for providing a destabilizing effect.
# A. niger [12] = assay: agar disc diffusion, zone of inhibition; type: cell-based; conditions: A. niger; discs 6 mm, test compounds 100 µg/mL in DMSO, standards 10 µg/disc; 28°C 48 h; average of three replicates
# Procedure: [The procedure below names another organism; the source lists this organism under the same test.] as §1, §3
# [13] = tested on: Aspergillus flavus (NCIM 524); assay: agar disc diffusion, zone of inhibition; type: cell-based; conditions: A. flavus; discs 6 mm, test compounds 100 µg/mL in DMSO, standards 10 µg/disc; 28°C 48 h; average of three replicates
# Procedure: as §1, §3
# [14] = DPPH free radical scavenging activity; conditions: DPPH 0.1 mM, absorbance at 517 nm; triplicate, mean ± SD
# Procedure: The capacity to scavenge the stable free radical 2,2-diphenyl-1-picrylhydrazyl (DPPH) was monitored according to the Blois method. The test samples (10–100 μL) were mixed with 1 mL of DPPH (0.1 mM) solution and filled up with methanol to a final volume of 4 mL. Absorbance of the resulting solution was measured at 517 nm in a visible spectrophotometer (Model 166, Systronics, India). The free radical scavenging rate of the reaction solution was calculated as a percentage (%) of DPPH decolouration using the equation (1) I(%)=(Ablank−Asample/Ablank)×100, where A blank is the absorbance of the control reaction mixture excluding the test compounds, and A sample is the absorbance of the test compounds. Radical scavenging potential was expressed as IC50 value, which represents the sample concentration at which 50% of the DPPH radicals were scavenged. Tests were carried out in triplicate and the results were expressed as mean values ± standard deviations.
# DPPH radical scavenging activity evaluation is a standard assay in antioxidant activity studies and offers a rapid technique for screening the radical scavenging activity of specific compounds [24]. The free radical scavenging activity of newly synthesized compounds was tested by their ability to bleach the stable radical DPPH. The activity was monitored by following the absorption at 517 nm in a visible spectrophotometer. In the presence of any free radical scavenger, this odd electron pairs up and causes the diminishing of absorption band which is proportional to the number of electrons taken up. The activity was studied at different concentrations for each compound. […] Resulting from a color change from purple to yellow the absorbance decreased when the antioxidant molecule can quench DPPH free radical through donation of hydrogen atom or by electron donating to form a stable DPPH molecule.
smiles,measurement,setting,value
"[H]/N=C(/N)N[C@H]1[C@H](O)[C@@H](O)[C@H](O[C@@H]2O[C@@H](C)[C@](O)(C=O)[C@H]2O[C@@H]2O[C@@H](CO)[C@H](O)[C@@H](O)[C@@H]2NC)[C@@H](N/C(N)=N\[H])[C@@H]1O [Streptomycin, streptomycin, reference compound]",MIC,"[1]; Bacillus subtilis, NCIM2999, read-out: MIC",5 µg/mL
same,MIC,"[2]; Escherichia coli, NCIM2574, read-out: MIC",5 µg/mL
same,MIC,"[3]; Pseudomonas aeruginosa, NCIM5029, read-out: MIC",5 µg/mL
same,MIC,"[4]; Staphylococcus aureus, NCIM5021, read-out: MIC",5 µg/mL
same,zone of inhibition at 100 µg/mL,"[5]; Bacillus subtilis, NCIM2999, read-out: zone of inhibition",13.4 mm
same,zone of inhibition at 100 µg/mL,"[6]; Escherichia coli, NCIM2574, read-out: zone of inhibition",16.5 mm
same,zone of inhibition at 100 µg/mL,"[7]; Pseudomonas aeruginosa, NCIM5029, read-out: zone of inhibition",14 mm
same,zone of inhibition at 100 µg/mL,"[8]; Staphylococcus aureus, NCIM5021, read-out: zone of inhibition",14.1 mm
"CC(=O)N(C(=O)OCc1ccccc1Cl)c1ccc(N=Cc2cc3ccccc3o2)cc1 [Compound 5d, 2-chlorobenzylacetyl(4-((benzofuran-2-ylmethylene)amino)phenyl)carbamate]",MIC,[1],50 µg/mL
same,MIC,[2],50 µg/mL
same,MIC,[3],50 µg/mL
same,MIC,A. niger [9],25 µg/mL
same,MIC,[10],40 µg/mL
same,MIC,[4],30 µg/mL
same,IC50 Superoxide,[11],55.3 ± 0.04 µg/mL
same,zone of inhibition,[5],14 mm
same,zone of inhibition,[6],10 mm
same,zone of inhibition,[7],13 mm
same,zone of inhibition,A. niger [12],13.7 mm
same,zone of inhibition,[13],11 mm
same,zone of inhibition,[8],12 mm
same,IC50 DPPH,[14],48.9 ± 0.11 µg/mL
"O=C1O[C@H]([C@@H](O)CO)C(O)=C1O [AA, Ascorbic acid, reference compound]",IC50 DPPH,[14],12.6 ± 0.43 µg/mL
"COc1ccc(O)c(C(C)(C)C)c1 [BHA, butylated hydroxyanisole, reference compound]",IC50 Superoxide,[11],13.4 ± 0.29 µg/mL
